This test has as its system IFN-regulated genes. In words: Interferon gene expression in whole blood (qPCR TLDA panel, IFN score), Pristane model. It counts as in vivo, mouse. The conditions noted are these: for disease up-regulated IFN-regulated genes reduced by treatment vs. vehicle: 13 weeks of treatment, Student's t-test. On the procedure:
FIG. 3A through FIG. 3E show results of testing compound ER-899742 in the Pristane: DBA/1 strain lupus disease model. Figure Legend: Female DBA/1 mice at 9 weeks of age were given an intraperitoneal injection of 0.5 ml pristane or PBS. At 9 weeks post-pristane animals were bled for auto-antibody titers. Once-a-day oral dosing with Vehicle (Veh; 0.5% methyl-cellulose) or 33 mg/kg, 100 mg/kg, or 300 mg/kg of ER-899742 was begun 10 weeks after pristane injection and continued for 13 weeks of treatment. Mice were euthanized after 13 weeks of compound treatment, and anti-dsDNA (FIG. 3A), anti-Sm/nRNP (FIG. 3B), anti-histone (FIG. 3C) and anti-RiboP (FIG. 3D) titers were measured in blood plasma samples by ELISA (statistical significance of treatment versus vehicle determined by ANOVA with Dunnett's post-test). (FIG. 3E) The expression of IFN-regulated genes in whole blood was measured by a qPCR panel after 13 weeks of treatment with 300 mg/kg of ER-899742, and an IFN gene signature score was calculated (see Pharmacology Materials and Methods section for details regarding IFN score calculation).
FIG. 7A through FIG. 7G show the effect of dosing with ER-899742 in Pristane-induced disease in DBA/1J mice. Figure Legend: Female DBA/1 mice at 9 weeks of age were given an intraperitoneal injection of 0.5 ml pristane or PBS. At 10 weeks post-pristane animals were bled for autoantibody titers. Once-a-day oral dosing with Vehicle (Veh; 0.5% methyl-cellulose) or 33 mg/kg, or 300 mg/kg of ER-899742 was begun 11 weeks after pristane injection and continued for 14 weeks of treatment. Mice were euthanized after 14 weeks of compound treatment, and anti-dsDNA (FIG. 7A), anti-RiboP (FIG. 7B), anti-Sm/nRNP (FIG. 7C), and anti-histone (FIG. 7D) titers were measured in blood plasma samples by ELISA (statistical significance of treatment versus vehicle determined by ANOVA with Dunnett's post-test). The same plasma was used to measure total IgG titers by ELISA at the end of dosing (FIG. 7E). […] Pristane-treated mice in this experiment developed arthritis, with swollen joints in the rear paws. Arthritis scores were assigned according to severity, each paw was scored on a scale of 0-4 based on signs of swelling and inflammation. Scores were summed for the two hind paws assessed on each animal, and graphed in FIG. 7F with statistical assessment as for ELISA titers above.
Assessment of interferon gene expression in whole blood. The expression of IFN-regulated genes in whole blood was measured by qPCR. Briefly, mice were euthanized, blood was collected via the vena cava, and 100 ul was preserved in tubes containing RNAlater (Ambion, Austin Tex.). Total RNA was isolated using the Mouse RiboPure Blood RNA Isolation Kit (Ambion). RNA concentrations were determined using a NanoDrop ND-1000 spectrophotometer (Thermo Scientific, Waltham Mass.). First strand cDNA was synthesized from 100 ng total RNA using SuperScript® VILO™ Master Mix (Life Technologies, Grand Island, N.Y.). After reverse transcription, cDNA was diluted with nuclease-free water and mixed with TaqMan® Fast Advanced Master Mix (Applied Biosystems). The mixture was then applied to a custom TaqMan® Low Density Array (TLDA) manufactured by Applied Biosystems, and qPCR was performed on the ABI 7900HT Fast Real-time PCR System (Applied Biosystems). Raw data was collected using RQ Manager 1.2.1 (Applied Biosystems) and analyzed using GeneData Analyst 2.2 software (GeneData).
The TLDA panel contained as many as 45 target genes chosen from Table 9 below, and 3 housekeeping genes for normalization. The housekeeping gene Hprt1 was chosen for normalization based on coefficient-of-variation. Relative quantities were determined for the target genes and used to calculate a fold change for each diseased mouse relative to the non-diseased control group receiving intraperitoneal PBS injection only. […]
(In general: Real-time PCR tracks product formation cycle by cycle.)

We go through two compounds from patent USRE47193E1, “Selectively substituted quinoline compounds” (EISAI R&D MANAGEMENT CO., LTD., priority 2013, dated 2019).

As to `C[C@@H]1CN(c2ccc(C#N)c3ncccc23)C[C@H](C(=O)NC2CCN(C)CC2)O1` [ER-899464, (2R,6R)-4-(8-cyanoquinolin-5-yl)-6-methyl-N-(1-methylpiperidin-4-yl)morpholine-2-carboxamide], the “disease up-regulated IFN-regulated genes reduced by treatment vs. vehicle” value is reported as “none of the disease up-regulated genes shown in FIG. 3B were affected”.
In the case of `C[C@@H]1CN(c2ccc(C#N)c3ncccc23)C[C@H](C(=O)N[C@H]2CNC[C@H]2F)O1.Cl` [ER-899742, (2R,6R)-4-(8-cyanoquinolin-5-yl)-N-[(3S,4R)-4-fluoropyrrolidin-3-yl]-6-methylmorpholine-2-carboxamide hydrochloride], the “disease up-regulated IFN-regulated genes reduced by treatment vs. vehicle” value is recorded as “six genes were significantly reduced”. Besides, under “13 weeks of treatment with 300 mg/kg”, the “interferon score, treated vs vehicle-treated” value is listed as “no significant difference”. Moreover, the “interferon score, treated vs vehicle-treated” value (14 weeks of treatment experiment (FIG. 7)) is given as “no significant difference”. In addition, where the note is “14 weeks of treatment experiment (FIG. 7G)”, the “disease-related interferon-modulated genes downregulated” value is “downregulation of five out of 28 disease-related interferon-modulated genes”. Also, the “expression of IFN-modulated genes in whole blood” value (Pristane model, summary of key findings) is on record as “Decreased expression of some IFN-modulated genes”.
